{"source": "paper PMC5104948", "about": "“Regulation and Essentiality of the StAR-related Lipid Transfer (START) Domain-containing Phospholipid Transfer Protein PFA0210c in Malaria Parasites” (The Journal of Biological Chemistry, 2016)", "key": {"[1]": {"target": "T1, PFA0210c (full-length, FL) (Plasmodium falciparum, UniProt Q8I298)", "T1 construct": "gene PF3D7_0104200; residues 144-466 (N-terminal region omitted, START domain plus whole C-terminal extension); N-terminal MBP and C-terminal His6 kept; E. coli BL21(DE3); monomeric SEC fractions; strain only from the locus tag and parasite line", "T1 sequence (Q8I298 144-466)": "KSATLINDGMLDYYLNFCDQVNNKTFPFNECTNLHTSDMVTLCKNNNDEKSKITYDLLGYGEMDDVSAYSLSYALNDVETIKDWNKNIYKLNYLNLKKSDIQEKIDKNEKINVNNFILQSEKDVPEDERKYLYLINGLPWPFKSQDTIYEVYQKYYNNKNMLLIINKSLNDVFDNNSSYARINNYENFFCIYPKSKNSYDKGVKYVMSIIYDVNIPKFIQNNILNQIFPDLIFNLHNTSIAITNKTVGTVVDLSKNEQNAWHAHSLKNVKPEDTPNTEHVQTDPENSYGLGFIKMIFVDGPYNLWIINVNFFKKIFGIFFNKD", "experiment": "[…]-phosphatidylcholine transfer from donor to acceptor vesicles", "assay_type": "biochemical", "conditions": "pH 7.4, 37 °C, 30 min; 25 μg/ml protein; labelled compound (trace in phosphatidylcholine vesicles)"}, "[2]": {"target": "T2, truncated PFA0210c (Trunc.) (Plasmodium falciparum, UniProt Q8I298)", "T2 construct": "gene PF3D7_0104200; residues 144-418 (C-terminal 48 residues removed); N-terminal MBP and C-terminal His6 kept; E. coli BL21(DE3)", "experiment": "[…]-phosphatidylcholine transfer from donor to acceptor vesicles", "assay_type": "biochemical", "conditions": "pH 7.4, 37 °C, 30 min; 25 μg/ml protein; labelled compound (trace in phosphatidylcholine vesicles)"}}, "data": [{"smiles": "CCCCCCCCCCCCCCCC(=O)OC[C@H](COP(=O)([O-])OCC[N+](C)(C)C)OC(=O)CCCCCCCCCCCCCCC", "note": "[L-α-dipalmitoyl-phosphatidylcholine]", "values": [{"measurement": "phospholipid transfer activity", "setting": "[1]", "result": "measures the transfer of radiolabeled phosphatidylcholine from a small population of donor vesicles"}, {"measurement": "phospholipid transfer activity", "setting": "[2]", "result": "All the truncated proteins showed higher phospholipid transfer activity than the full-length protein"}]}]}
